IC50 data for 6 compounds are collected here from patent publication US20170119776A1, “CHIRAL 2,5-DISUBSTITUTED CYCLOPENTANECARBOXYLIC ACID DERIVATIVES AND USE THEREOF” (BAYER PHARMA AKTIENGESELLSCHAFT, priority 2014, published 2017).

Common to all, as to type: biochemical
One assay concerns the target T1, MMP-8 of the rat (Rattus norvegicus, UniProt O88766).
T1 construct: purchased R&D Systems 3245-MP
Kind of assay: In vitro MMP-8 inhibition test of the rat. An excerpt:
(§1) The activity strength of the compounds according to the invention towards other MMPs (and therefore their selectivity) is likewise ascertained in in vitro inhibition tests. The MMP-mediated amidolytic cleavage of a suitable peptide substrate also leads here to a fluorescent light increase. The signal intensity of the fluorescent light is directly proportional to the enzyme activity. The active concentration of a test compound at which half of the enzyme is inhibited (50% signal intensity of the fluorescent light) is given as IC50 value.
Recombinant MMP-8 of the rat (R&D Systems, 3245-MP) is chemically activated in accordance with the manufacturer's instructions using APMA. […] of the test compound to be analysed (as a solution in DMSO, suitable concentrations e.g. 1 nM to 30 μM) is pipetted into 24 μl of activated enzyme (final concentration e.g. 1 nM) in reaction buffer (50 mM Tris/HCl pH 7.5, 10 mM CaCl2, 150 mM NaCl, 0.05% Brij®-35) in a white 384-hole microtiter plate (MTP). The enzymatic reaction is started by adding the intramolecularly quenched substrate Mca-Lys-Pro-Leu-Gly-Leu-Dpa(Dnp)-Ala-Arg-NH2 (final concentration e.g. 5 μM; R&D Systems, ES-010), such that a total test volume of 50 μl results. The progress of the MMP-8 reaction is measured by measuring the fluorescence intensity (excitation 320 nm, emission 410 nm) over a suitable period (e.g. over 120 min at a temperature of 32° C.).
(§2) Tables 3A and 3B below give the IC50 values from these tests for the inhibition of rodent MMPs for representative embodiment examples of the present invention and also for two structurally related comparison compounds from the prior art (as racemate and separated enantiomer)→(in part as average values from several independent individual determinations and rounded to two significant places). The IC50 values were determined for racemates and enantiomers from differently generated DMSO stock solutions. Whereas an automatically created DMSO stock solution from the internal substance logistics was used for racemates by means of a standard method, in the case of enantiomers, in each case a freshly produced, manually prepared DMSO stock solution was used for a more precise direct comparison of the enantiomers with one another.

The target in another assay is T2, MMP-3 of the mouse (Mus musculus, UniProt P28862).
T2 construct: purchased R&D Systems 548-MP
T2 sequence (P28862 100-477): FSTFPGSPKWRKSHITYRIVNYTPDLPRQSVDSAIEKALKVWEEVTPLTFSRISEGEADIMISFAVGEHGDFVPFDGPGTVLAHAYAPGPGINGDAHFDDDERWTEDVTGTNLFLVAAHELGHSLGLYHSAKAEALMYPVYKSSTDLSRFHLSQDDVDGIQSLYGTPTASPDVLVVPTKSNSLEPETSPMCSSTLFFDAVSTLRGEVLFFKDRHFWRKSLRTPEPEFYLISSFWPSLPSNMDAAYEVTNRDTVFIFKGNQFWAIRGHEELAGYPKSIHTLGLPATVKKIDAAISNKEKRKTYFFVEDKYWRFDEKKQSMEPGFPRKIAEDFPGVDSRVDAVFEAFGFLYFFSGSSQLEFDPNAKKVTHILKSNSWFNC
Nature of the assay: In vitro MMP-3 inhibition test of the mouse.
Text: as §1
Recombinant MMP-3 of the mouse (R&D Systems, 548-MP) is chemically activated in accordance with the manufacturer's instructions using APMA. 1 μl of the test compound to be analysed (as a solution in DMSO, suitable concentrations e.g. 1 nM to 30 μM) is pipetted into 24 μl of activated enzyme (final concentration e.g. 0.5 nM) in reaction buffer (50 mM Tris/HCl pH 7.5, 10 mM CaCl2, 150 mM NaCl, 0.05% Brij®-35) in a white 384-hole microtiter plate (MTP). The enzymatic reaction is started by adding the intramolecularly quenched substrate Mca-Arg-Pro-Lys-Pro-Val-Glu-Nval-Trp-Arg-Lys(Dnp)-NH2 (final concentration e.g. 5 μM; R&D Systems, ES-002), such that a total test volume of 50 μl results. The progress of the MMP-3 reaction is measured by measuring the fluorescence intensity (excitation 320 nm, emission 410 nm) over a suitable period (e.g. over 120 min at a temperature of 32° C.).
as §2

For another assay, the target named is T3, MMP-8 of the mouse (Mus musculus, UniProt O70138).
T3 construct: purchased R&D Systems 2904-MP
T3 sequence (O70138 101-465): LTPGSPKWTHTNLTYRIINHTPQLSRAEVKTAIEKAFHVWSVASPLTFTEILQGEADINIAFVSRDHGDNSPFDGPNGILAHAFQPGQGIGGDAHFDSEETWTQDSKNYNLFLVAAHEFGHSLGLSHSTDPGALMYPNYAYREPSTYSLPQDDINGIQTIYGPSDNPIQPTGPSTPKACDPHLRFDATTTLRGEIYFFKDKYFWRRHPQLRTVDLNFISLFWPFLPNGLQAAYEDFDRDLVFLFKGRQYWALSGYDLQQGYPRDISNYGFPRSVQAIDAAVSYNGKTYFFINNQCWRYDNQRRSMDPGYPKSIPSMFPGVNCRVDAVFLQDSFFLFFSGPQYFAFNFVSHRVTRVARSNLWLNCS
Kind of assay: In vitro MMP-8 inhibition test of the mouse.
Text: as §1
Recombinant MMP-8 of the mouse (R&D Systems, 2904-MP) is chemically activated in accordance with the manufacturer's instructions using APMA. 1 μl of the test compound to be analysed (as a solution in DMSO, suitable concentrations e.g. 1 nM to 30 μM) is pipetted into 24 μl of activated enzyme (final concentration e.g. 2 nM) in reaction buffer (50 mM Tris/HCl pH 7.5, 10 mM CaCl2, 150 mM NaCl, 0.05% Brij®-35) in a white 384-hole microtiter plate (MTP). The enzymatic reaction is started by adding the intramolecularly quenched substrate Mca-Lys-Pro-Leu-Gly-Leu-Dpa(Dnp)-Ala-Arg-NH2 (final concentration e.g. 5 μM; R&D Systems, ES-010), such that a total test volume of 50 μl results. The progress of the MMP-8 reaction is measured by measuring the fluorescence intensity (excitation 320 nm, emission 410 nm) over a suitable period (e.g. over 120 min at a temperature of 32° C.).
as §2

T1 sequence (O88766 102-466): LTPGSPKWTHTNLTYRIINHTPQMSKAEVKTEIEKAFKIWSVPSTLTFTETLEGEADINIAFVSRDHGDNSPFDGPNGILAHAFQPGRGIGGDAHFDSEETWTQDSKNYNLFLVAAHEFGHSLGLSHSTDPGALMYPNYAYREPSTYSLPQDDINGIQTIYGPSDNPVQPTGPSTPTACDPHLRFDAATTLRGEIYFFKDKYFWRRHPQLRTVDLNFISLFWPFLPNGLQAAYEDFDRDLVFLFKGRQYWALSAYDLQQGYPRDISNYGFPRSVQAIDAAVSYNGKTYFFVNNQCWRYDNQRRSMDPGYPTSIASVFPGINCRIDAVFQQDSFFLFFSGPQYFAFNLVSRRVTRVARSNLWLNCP

On to `O=C(O)[C@H]1[C@H](Cn2nnc3ccccc3c2=O)CC[C@@H]1C(=O)c1ccc(-c2ccc(Cl)cc2)cc1` (racemic) [Comparative Example A-1, (1RS,2RS,5SR)-2-[(4′-chlorobiphenyl-4-yl)carbonyl]-5-[(4-oxo-1,2,3-benzotriazin-3(4H)-yl)methyl]cyclopentanecarboxylic acid (racemate)], for which the IC50 – broadly, the concentration that inhibits the measured activity by half – against MMP-8 of the rat worked out at 1.4 nM; against MMP-3 of the mouse, 17 nM; at MMP-8 of the mouse, 1.1 nM.
Taken in the same sequence, the figures for `CCCCCOc1ccc(C(=O)CC(CCn2nnc3ccccc3c2=O)C(=O)O)cc1` (single isomer, unassigned; enantiomer 1) [Comparative Example B-2, (+)-4-Oxo-2-[2-(4-oxo-1,2,3-benzotriazin-3(4H)-yl)ethyl]-4-[4-(pentyloxy)phenyl]butanoic acid (enantiomer 1)] were 1040 nM, 6750 nM and 1080 nM.
For `CCCCCOc1ccc(C(=O)CC(CCn2nnc3ccccc3c2=O)C(=O)O)cc1` (racemic) [Comparative Example B-1, (+/−)-4-Oxo-2-[2-(4-oxo-1,2,3-benzotriazin-3(4H)-yl)ethyl]-4-[4-(pentyloxy)phenyl]butanoic acid (racemate)], in that order: 3500 nM, 13000 nM and 2300 nM.
For `O=C(O)[C@@H]1[C@@H](Cn2nnc3ccccc3c2=O)CC[C@H]1C(=O)c1ccc(-c2ccc(Cl)cc2)cc1` (single isomer, unassigned; enantiomer 2) [Comparative Example A-3, (1RS,2RS,5SR)-2-[(4′-Chlorobiphenyl-4-yl)carbonyl]-5-[(4-oxo-1,2,3-benzotriazin-3(4H)-yl)methyl]cyclopentanecarboxylic acid (enantiomer 2)], in that order: 1.4 nM, 11.3 nM and under 0.61 nM.
Turning to `O=C(O)[C@H]1[C@H](Cn2nnc3ccccc3c2=O)CC[C@@H]1C(=O)c1ccc(OCc2ccccc2)cc1` [Example 2, (+)-(1S,2S,5R)-2-[4-(Benzyloxy)benzoyl]-5-[(4-oxo-1,2,3-benzotriazin-3(4H)-yl)methyl]cyclopentanecarboxylic acid], the results for the IC50 on MMP-8 of the rat, against MMP-3 of the mouse and against MMP-8 of the mouse were 38.5 nM, 87 nM and 34.5 nM, respectively.
As to `O=C(O)[C@H]1[C@H](Cn2nnc3ccccc3c2=O)CC[C@@H]1C(=O)c1ccc(OCc2ccccc2)cc1` (racemic) [Example 1, (+/−)-(1RS,2RS,5SR)-2-[4-(Benzyloxy)benzoyl]-5-[(4-oxo-1,2,3-benzotriazin-3(4H)-yl)methyl]cyclopentanecarboxylic acid (racemate)], the results for the IC50 at MMP-8 of the rat, against MMP-3 of the mouse and against MMP-8 of the mouse were 100 nM, 290 nM and 71 nM, respectively.
